Key:
[1] = molecular target: FKBP (Homo sapiens, UniProt P62942, F37V); conditions: F36V FKBP derivative vs wild-type FKBP; cited from earlier work
[2] = tested on: ARPE-19 cells; assay: Shield-1 concentration dependent progeny virus production (TCID50 assay); type: cell-based, human; conditions: FKBP derivative fused to UL51 or UL52
Experimental: FKBP fusion proteins used in this study comprise an essential protein (IE1/2, UL51, UL52, UL79, UL84, UL87, IE1/2-UL51) fused to an FKBP derivative (ddIE1/2, ddUL51, ddUL52, ddUL79, ddUL84, ddUL87, and ddIE1/2-UL51). ARPE-19 cells were infected with the various rdCMV viruses comprising the noted fusion proteins, at a multiplicity of 0.01 PFU/cell for 1 hour, washed twice with fresh medium, and incubated in the growth medium containing 0, 0.05, 0.1 0.5 or 2 μM of Shield-1. Seven days post infection, the cell free virus was collected, and virus titers were determined by TCID50 assay on ARPE-19 cells in the presence of 2 μM of Shield 1.
Varying concentrations of Shld-1 were used in additional experiments to further assess viral replication in the presence or absence of Shld-1. ARPE-19 cells were infected by the gH expressing CMV that also contained a FKBP derivative fused to an essential protein at MOI of […]. After infection for 1 hour, the cells were washed twice with fresh medium to remove Shld-1. […] Virus titers were determined by a 50% Tissue Culture Infective Dose (TCID50) assay. Briefly, this dilution assay quantifies the amount of virus required to kill 50% of infected hosts. […] After incubation, the percentage of cell death (i.e. infected cells) was manually observed and recorded for each virus dilution. […]

Chain of FKBP (P62942 2-108 F37V limits assumed): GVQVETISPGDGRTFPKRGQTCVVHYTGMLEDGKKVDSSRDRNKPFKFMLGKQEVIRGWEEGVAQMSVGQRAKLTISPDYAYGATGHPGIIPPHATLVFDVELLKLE

## CC[C@H](C(=O)N1CCCC[C@H]1C(=O)O[C@H](CCc1ccc(OC)c(OC)c1)c1cccc(OCCN2CCOCC2)c1)c1cc(OC)c(OC)c(OC)c1 [Shield-1]
[1]
  Binding to the F36V derivative compared to wild-type FKBP (tighter): about 1,000 fold
[2]
  Shield-1 concentration that can effectively turn on or off viral replication: 50 nM

— patent publication US20150307850A1, “CONDITIONAL REPLICATING VIRAL VECTORS” (priority 2012, published 2015)
